Like-named read-outs stand apart in the source and are kept apart here. Marks after values point to notes of the source that are not given here.
Assays:
HBV GT B (wild-type HBV) = assay: Transient-transfection antiviral study in HepG2 cells, GT B (wild-type HBV); type: cell-based, hepatitis B virus; conditions: for EC50: Hepatitis B virus; for EC50 FC, wild type: reference, ratio to wild-type HBV
Protocol: Cells were cotransfected with the HBV plasmids (100 ng/well) and a Gaussia expression plasmid (10 ng/well) (Thermo Scientific) using the Lipofectamine LTX Plus transfection reagent (Life Technologies). Transfection mixtures were removed after overnight incubation, and cells were treated with serially diluted NVR 3-778 at a final dimethyl sulfoxide (DMSO) concentration of 0.5%. After 3 days of incubation with the compound, the supernatants were collected and secreted Gaussia luciferase was measured using a Gaussia Flash luciferase assay kit (Thermo Scientific). […] Samples were diluted into lysis buffer (Affymetrix) containing 2.5 µg proteinase K (Affymetrix) at 50°C for 40 min. Intracellular encapsidated HBV DNA was denatured for 30 min at 25°C in 0.2 M NaOH (Sigma) and incubated with HBV DNA probes designed to hybridize to the minus-strand HBV DNA (Affymetrix). The denatured DNA was subsequently detected using a QuantiGene assay kit, according to the branched DNA (bDNA) assay recommended by the manufacturer (Affymetrix).

HBV = assay: Antiviral studies using HepG2.2.15 cells (HBV DNA and HBV RNA readouts); type: cell-based, hepatitis B virus (GT D); conditions: for Effect on secreted HBV RNA, single drug: 6 days, increasing concentrations; for EC50: Hepatitis B virus
Protocol: In combination studies, cells were treated with compounds either alone or in combination after combining the compounds in a checkerboard format. In studies examining the effect of human serum, serially diluted NVR 3-778 was added into cell culture medium containing 0% to 40% human serum (BioreclamationIVT). Cells were incubated with the compounds for 3 days, after which the medium was removed, fresh medium containing the compounds was added to the cells, and the cells were incubated for another 3 days prior to harvesting of the supernatants or cells for antiviral assays. To quantify intracellular encapsidated rcDNA or encapsidated pgRNA, cells were first solubilized using lysis buffer containing 1% NP-40 and 10 mM CaCl2. The cytoplasmic fraction was then treated with S7 nuclease (6 units) to remove nonencapsidated nucleic acids, after which the S7 nuclease was inactivated by the addition of EDTA (0.5 M). […] The levels of HBV DNA were determined by a bDNA assay as described above (Affymetrix). Supernatants or cell lysates containing HBV RNA were treated with proteinase K (2.5 µg) at 50°C for 40 min, transferred to a capture plate containing HBV RNA probe sets, and hybridized overnight at 55°C. Captured HBV RNA was measured by the addition of a chemiluminescent substrate using a QuantiGene assay (Affymetrix). […] At day 6, the CellTiter-Glo reagent was added to the cells and viability was determined according to the manufacturer’s protocol (Promega). Luminescence signals were measured at 0.2 s using a Victor X4 multimode plate reader (PerkinElmer).

[1] = test system: HBV rtL180M/M204V/N236T variant; assay: microbe, parasite or virus in culture; type: cell-based, hepatitis B virus
Text: (§1) Plasmids containing HBV DNA with rtN236T, rtA181V, rtA181V/N236T, and rtL180M/M204V/N236T were generated using the GT B WT or rtL180M/M204V DNA-containing plasmids and site-directed mutagenesis (Agilent Technologies). A panel of nine different HBV core variants (cW102G, cW102R, cI105V, cI105L, cI105T, cT109S, cT109M, cT109I, and cY118F) was generated, also using the GT B WT DNA-containing plasmid and site-directed mutagenesis. The full-length genome from all plasmids was sequenced to confirm that only the intended nucleotide change(s) was present. Finally, HBV sequences from genotypes A (GenBank accession number AF305422), C (GenBank accession number AB033550), D (GenBank accession number V01460), E (GenBank accession number AB274971), F (GenBank accession number AB036912), G (GenBank accession number AF160501), and H (GenBank accession number AB375159) were gene synthesized as 1.1 times the genome length together with part of the CMV promoter at the 5′ end. The gene-synthesized piece was validated by sequencing and subcloned into the pCMV-HBV plasmid using the restriction sites SalI and NdeI (Genewiz, USA).
(§2) HepG2 cells were seeded in 96-well plates at a density of 20,000 cells/well and allowed to attach overnight at 37°C in 5% CO2. Cells were cotransfected with the HBV plasmids (100 ng/well) and a Gaussia expression plasmid (10 ng/well) (Thermo Scientific) using the Lipofectamine LTX Plus transfection reagent (Life Technologies). Transfection mixtures were removed after overnight incubation, and cells were treated with serially diluted NVR 3-778 at a final dimethyl sulfoxide (DMSO) concentration of 0.5%. After 3 days of incubation with the compound, the supernatants were collected and secreted Gaussia luciferase was measured using a Gaussia Flash luciferase assay kit (Thermo Scientific). Cells were lysed with 0.33% NP-40 (Thermo Scientific), and the cytoplasmic fractions were treated with 2 units of Turbo DNase (Invitrogen) and 10 units of S7 nuclease (Roche) in CutSmart buffer (New England Biolabs) containing 25 µM CaCl2 (G-Biosciences) at 37°C for 60 min, followed by inactivation of the enzymes at 75°C for 15 min. Samples were diluted into lysis buffer (Affymetrix) containing 2.5 µg proteinase K (Affymetrix) at 50°C for 40 min. Intracellular encapsidated HBV DNA was denatured for 30 min at 25°C in 0.2 M NaOH (Sigma) and incubated with HBV DNA probes designed to hybridize to the minus-strand HBV DNA (Affymetrix). The denatured DNA was subsequently detected using a QuantiGene assay kit, according to the branched DNA (bDNA) assay recommended by the manufacturer (Affymetrix).
(§3) To determine percent inhibition, the mean background signal from wells containing only culture medium was subtracted from the signal for all other samples, and percent inhibition at each compound concentration was calculated by normalization to the signals for HepG2.2.15 cells treated with 0.5% DMSO. […] Both CalcuSyn and MacSynergy II (Ann Arbor, MI) software were used to evaluate the effect of compound combinations ([27]). After data analysis at the 95% confidence level, values of synergy or antagonism of <25 µM^2% were defined as insignificant, those between 25 and 50 µM^2% were defined as minor, those between 50 and 100 µM^2% were defined as moderate, and those of >100 µM^2% were defined as strong.

[2] = test system: HBV rtL180M/M204V variant; assay: microbe, parasite or virus in culture; type: cell-based, hepatitis B virus
Text: as §1, §2, §3

[3] = ratio of mean EC50 against variant over WT HBV, HepG2 cells

| SMILES | EC50 (HBV GT B (wild-type HBV); HepG2, read-out: WT EC50) | EC50 FC, wild type (HBV GT B (wild-type HBV)) | Effect on secreted HBV RNA, single drug (HBV; HepG2.2.15 cells) | EC50 (HBV; HepG2.2.15, values used as starting concentrations of the combination study, read-out: EC50 against HBV DNA replication in HepG2.2.15 cells) | EC50 ([1]; Hepatitis B virus, HepG2, read-out: EC50, rtL180M/M204V/N236T variant) | EC50 ([2]; Hepatitis B virus, HepG2, read-out: EC50 (mean), rtL180M/M204V variant) | EC50 (HBV GT B (wild-type HBV); HepG2, 72 h, read-out: EC50 (mean), HBV GT B) | EC50 (HBV GT B (wild-type HBV); HepG2, read-out: EC50, wild type HBV) | EC50 (HBV; HepG2.2.15 cells, QuantiGene assay, read-out: EC50, intracellular encapsidated pgRNA (mean)) | EC50 (HBV; HepG2.2.15 cells, branched DNA assay, read-out: EC50, intracellular encapsidated rcDNA (mean)) | EC50 (HBV; HepG2.2.15 cells, supernatant, read-out: EC50, secreted HBV DNA (mean)) | EC50 (HBV; HepG2.2.15 cells, supernatant, read-out: EC50, secreted HBV RNA (mean)) | EC50 fold change, rtL180M/M204V/N236T [1, 3] | EC50 fold change, rtL180M/M204V [2, 3] |
| --- | --- | --- | --- | --- | --- | --- | --- | --- | --- | --- | --- | --- | --- | --- |
| Nc1ccn([C@@H]2CS[C@H](CO)O2)c(=O)n1 [LMV, lamivudine, reference compound] | 530 ± 120 nM | 1 fold | increased the production of secreted HBV RNA | 150 nM | > 100000 nM | > 100000 nM | – | – | – | – | – | – | – | – |
| O=C(Nc1cc(F)c(F)c(F)c1)c1ccc(F)c(S(=O)(=O)N2CCC(O)CC2)c1 [NVR 3-778] | 310 ± 100 nM | 1 fold | inhibited the production of secreted HBV RNA | – | – | – | 200 nM | 230 ± 110 nM | 440 nM | 340 nM | 400 nM | 600 nM | 1.4 ± 0.5^d fold | 1.3 ± 0.6^d fold |

— publication PMC6325219, “Preclinical Characterization of NVR 3-778, a First-in-Class Capsid Assembly Modulator against Hepatitis B Virus” (Antimicrobial Agents and Chemotherapy, 2018)
